One test has as its system S. aureus ATCC 29213. The test is described as follows: microbe, parasite or virus in culture. It counts as cell-based, Staphylococcus aureus. Particulars: ATCC 29213, 24 h. As to the method: (§1) Tissue expression of devil cathelicidin prepropeptides was determined by real-time PCR on a range of secretory, immune, reproductive, gastrointestinal and respiratory tissues, as well as BLAST searches of the milk transcriptome. Opportunistic tissue samples for real-time PCR were collected from Taronga Zoo (Sydney) from devils which were subject to euthanasia due to old age and advanced disease. The mature peptides of all six devil cathelicidins were synthesised by ChinaPeptides Co. Ltd. and their antimicrobial activity against bacterial and fungal pathogens determined by broth microdilution susceptibility assay according to clinical laboratory standards institute guidelines. Antimicrobial activity was expressed as minimum inhibitory concentration (MIC). Cytotoxicity was assessed in the human cell line A549 and haemolytic activity determined against human blood. Statistical significance of peptide effect on cell survival in comparison to the untreated control was calculated using a one sample t-test. Pouch microbiome analysis was performed on swabs from the pouch of lactating and non-lactating devils to detect changes in microbe populations. Pouch swab collection was carried out in accordance with the Save the Tasmanian Devil Program and was approved by the Animal Ethics Committee of the University of Sydney (permit number 681). […]
(§2) base (YNB) for fungi, from a concentration of 64μg/mL to 0.125μg/mL in a final volume of 100 μL .
(§3) Two antibiotics, ampicillin and tetracycline, were included as a positive control for bacteria, and the antifungal drug fluconazole for fungi. A well containing cells and media only was used as a “no drug” control to ensure that cultures grew normally. Bacteria were subcultured on Mueller Hinton agar (MHA) or Sheep blood agar (BA) for 24 hours at 35 °C for Staphylococcus spp., Pseudomonas spp., Enterococcus spp. and E.coli, with 5% CO2 for Streptococcus spp., K.pneumoniae, P.multocida, L.monocytogenes and N.asteroides. Similarly, fungi were subcultured on Sabouraud agar (SAB) at 35 °C for 24 hours prior to the test. Colonies were resuspended in saline and the OD530 measured with a McFarland reader. If necessary the suspension was diluted to 0.45-0.55 McFarland units with saline. […] Assays Antimicrobial activity was expressed as minimum inhibitory concentration (MIC), which was defined as the lowest concentration of cathelicidin preventing visible growth, relative to the negative control. […]
(§4) 570nm and 620nm using the Victor 3 multilabel plate reader (PerkinElmer). […] To x i city of cathelicidins was calculated according to Invitrogen recommendations and expressed as percentage cell survival compared to the untreated growth control. […]
(§5) Haemolytic activity was assessed using 10mL of human blood collected into potassium -ED T A vacutainers (BD). […]

The subject of the next test is C. gattii. In kind it is cell-based, Cryptococcus gattii. Particulars: broth microdilution (CLSI), YNB, 64 to 0.125 μg/mL, 72 hours at 35 °C; human clinical isolate. On the procedure:
as §1, with “t-test.” for “t-test. Pouch microbiome analysis was performed on swabs from the pouch of lactating and non-lactating devils to detect changes in microbe populations. Pouch swab collection was carried out in accordance with the Save the Tasmanian Devil Program and was approved by the Animal Ethics Committee of the University of Sydney (permit number 681).”
(§6) Two antibiotics, ampicillin and tetracycline, were included as a positive control for bacteria, and the antifungal drug fluconazole for fungi. […] Colonies were resuspended in saline and the OD530 measured with a McFarland reader. […] Assays Antimicrobial activity was expressed as minimum inhibitory concentration (MIC), which was defined as the lowest concentration of cathelicidin preventing visible growth, relative to the negative control. […]
(§7) DMEM and positive control of dimethylsulfoxide (DMSO) (1%) were also included. Following incubation for a further 24 hours, cell viability was determined using alamar blue (Invitrogen) which was added to each well. The plates were incubated for 24 hours, then the absorption measured at 570nm and 620nm using the Victor 3 multilabel plate reader (PerkinElmer). […] To x i city of cathelicidins was calculated according to Invitrogen recommendations and expressed as percentage cell survival compared to the untreated growth control. […]
(§8) Haemolytic activity was assessed using 10mL of human blood collected into potassium -ED T A […]

Another test relates to E. faecalis ATCC 29212. The test is described as follows: microbe, parasite or virus in culture. In kind it is cell-based, Enterococcus faecalis. Particulars: ATCC 29212, 24 h. As to the method: as §1, §2, §3, §4, §5
For the next test, the system named is C. neoformans. In kind it is cell-based, Cryptococcus neoformans. Particulars: broth microdilution (CLSI), YNB, 64 to 0.125 μg/mL, 72 hours at 35 °C; human clinical isolate. On the procedure: as §1, with “t-test.” for “t-test. Pouch microbiome analysis was performed on swabs from the pouch of lactating and non-lactating devils to detect changes in microbe populations. Pouch swab collection was carried out in accordance with the Save the Tasmanian Devil Program and was approved by the Animal Ethics Committee of the University of Sydney (permit number 681).”
as §6, §7, §8
In general terms: Dilution methods test growth across graded concentrations, often in twofold steps.

The next test concerns N. asteroides*. In kind it is cell-based. Particulars: broth microdilution (CLSI), 64 to 0.125 μg/mL, 24 h at 35 °C with 5% CO2; animal isolate. On the procedure: as §1, §2
(§9) Two antibiotics, ampicillin and tetracycline, were included as a positive control for bacteria, and the antifungal drug fluconazole for fungi. A well containing cells and media only was used as a “no drug” control to ensure that cultures grew normally. Bacteria were subcultured on Mueller Hinton agar (MHA) or Sheep blood agar (BA) for 24 hours at 35 °C for Staphylococcus spp., Pseudomonas spp., Enterococcus spp. and E.coli, with 5% CO2 for Streptococcus spp., K.pneumoniae, P.multocida, L.monocytogenes and N.asteroides. Similarly, fungi were subcultured on Sabouraud agar (SAB) at 35 °C for 24 hours prior to the test. Colonies were resuspended in saline and the OD530 measured with a McFarland reader. If necessary the suspension was diluted to 0.45-0.55 McFarland units with saline. Following a 1:150 dilution for bacteria and twostep dilution for fungi (1:50, 1:20), 100 μL of microorganisms (1x106 – 5 x10^5 cells/mL) were pipetted into wells 2-12, the first well acting as a negative control. Colony counts were performed using a 1:1000 dilution for bacteria and 1:10 for fungi spread onto MHA/BA or SAB plates respectively. The 96 well microdilution and agar plates were incubated for 24 hours at 35 °C (Escherichia coli, Staphylococcus spp., Enterococcus spp. and Pseudomonas spp.), with 5% CO2 (Streptococcus spp. Pasteurella multocida, Klebsiella pneumoniae, Listeria monocytogenes a nd Nocardia asteroids) for bacteria, and 35 °C for 48 hours (Candida spp .) or 72 hours (Cryptococcus spp.) for fungi. Assays Antimicrobial activity was expressed as minimum inhibitory concentration (MIC), which was defined as the lowest concentration of cathelicidin preventing visible growth, relative to the negative control. […]
(§10) DMEM and positive control of dimethylsulfoxide (DMSO) (1%) were also included. Following incubation for a further 24 hours, cell viability was determined using alamar blue (Invitrogen) which was added to each well. The plates were incubated for 24 hours, then the absorption measured at 570nm and 620nm using the Victor 3 multilabel plate reader (PerkinElmer). The assay was performed on two separate occasions. To x i city of cathelicidins was calculated according to Invitrogen recommendations and expressed as percentage cell survival compared to the untreated growth control. A significant difference between cathelicidin treated and control cell survival was tested using a o ne sample t-test (p<0.05).
as §8
(§11) vacutainers (BD). […]

In the next test the test system is S. oralis/mitis group. It counts as cell-based. Particulars: broth microdilution (CLSI), 64 to 0.125 μg/mL, 24 h at 35 °C with 5% CO2; human clinical isolate. As to the method: as §1, §2, §9, §10, §8, §11
The test system of a further test is S. mutans. It counts as cell-based. Particulars: broth microdilution (CLSI), 64 to 0.125 μg/mL, 24 h at 35 °C with 5% CO2; human clinical isolate. On the procedure: as §1, §2, §9, §10, §8, §11
The subject of another test is S. agalactiae ATCC 12386. It counts as cell-based. Particulars: broth microdilution (CLSI), 64 to 0.125 μg/mL, 24 h at 35 °C with 5% CO2; ATCC strain. On the procedure:
as §1, §2, §9, §10, §8, §11

A further test concerns S. salivarius. It counts as cell-based. Particulars: broth microdilution (CLSI), 64 to 0.125 μg/mL, 24 h at 35 °C with 5% CO2; human clinical isolate. As to the method:
as §1, §2, §9, §10, §8, §11

For the next test, the system named is C. glabrata. In kind it is cell-based. Particulars: broth microdilution (CLSI), YNB, 64 to 0.125 μg/mL, 48 hours at 35 °C; human clinical isolate. As to the method: as §1, §2, §9, §10, §8, §11
A further test relates to S. equi*. It counts as cell-based. Particulars: broth microdilution (CLSI), 64 to 0.125 μg/mL, 24 h at 35 °C with 5% CO2; animal isolate. As to the method:
as §1, §2, §9, §10, §8, §11

Test [1] has as its system S. dysgalactiae subs. equisimilis. In kind it is cell-based. Particulars: broth microdilution (CLSI), 64 to 0.125 μg/mL, 24 h at 35 °C with 5% CO2; human clinical isolate. As to the method:
as §1, §2, §9, §10, §8, §11

A further test relates to S. pyogenes ATCC 19615. It counts as cell-based. Particulars: broth microdilution (CLSI), 64 to 0.125 μg/mL, 24 h at 35 °C with 5% CO2; ATCC strain. On the procedure: as §1, §2, §9, §10, §8, §11
For another test, the system named is S. agalactiae. In kind it is cell-based. Particulars: broth microdilution (CLSI), 64 to 0.125 μg/mL, 24 h at 35 °C with 5% CO2; human clinical isolate. As to the method: as §1, §2, §9, §10, §8, §11
Another test deals with C. albicans. It counts as cell-based. Particulars: broth microdilution (CLSI), YNB, 64 to 0.125 μg/mL, 48 hours at 35 °C; human clinical isolate. As to the method: as §1, §2, §9, §10, §8, §11
The next test deals with S. anginosus. In kind it is cell-based. Particulars: broth microdilution (CLSI), 64 to 0.125 μg/mL, 24 h at 35 °C with 5% CO2; human clinical isolate. On the procedure:
as §1, §2, §9, §10, §8, §11

In a further test the test system is S. lutetiensis. It counts as cell-based. Particulars: broth microdilution (CLSI), 64 to 0.125 μg/mL, 24 h at 35 °C with 5% CO2; human clinical isolate. As to the method: as §1, §2, §9, §10, §8, §11
Another test concerns P. aeruginosa ATCC 27853. The test is described as follows: microbe, parasite or virus in culture. It counts as cell-based, Pseudomonas aeruginosa. Particulars: ATCC 27853, 24 h. As to the method:
as §1, §2, §3, §4, §5

For three sequences, MIC results are on record in publication PMC5057115, “Cathelicidins in the Tasmanian devil (Sarcophilus harrisii)” (Scientific Reports, 2016).

Where no end group is shown, it is not given here.

In the case of KRIGLIRLIGKILRGLRRLG [Saha-CATH5], the MIC in the test with S. aureus ATCC 29213 is 64 µg/mL; in the test on C. gattii it was 64 µg/mL; against E. faecalis ATCC 29212, more than 64 µg/mL; against C. neoformans, 32 µg/mL; against N. asteroides* it was more than 64 µg/mL; against S. oralis/mitis group it was 64 µg/mL. Moreover, the MIC in the test with S. mutans was more than 64 µg/mL; against S. agalactiae ATCC 12386, 64 µg/mL; against S. salivarius, more than 64 µg/mL; against C. glabrata it was more than 64 µg/mL; in the test on S. equi*, 64 µg/mL; in [1] it was more than 64 µg/mL. Besides, the MIC against S. pyogenes ATCC 19615 is 32 µg/mL; with S. agalactiae it was 64 µg/mL; in the test with C. albicans, more than 64 µg/mL; in the test with S. anginosus, 32 µg/mL; with S. lutetiensis, more than 64 µg/mL; in the test with P. aeruginosa ATCC 27853, more than 64 µg/mL.

Turning to “KRIRFFERIRDRLRDLGNRIKNRIRDFFS [Saha-CATH6]”, the MIC against S. aureus ATCC 29213 is more than 64 µg/mL; against C. gattii, 64 µg/mL; in the test with E. faecalis ATCC 29212, more than 64 µg/mL; in the test on C. neoformans it was 64 µg/mL; against N. asteroides* it was more than 64 µg/mL; in the test on S. oralis/mitis group it was 64 µg/mL. For the same sequence, the MIC with S. mutans was more than 64 µg/mL; against S. agalactiae ATCC 12386, 64 µg/mL; in the test on S. salivarius, more than 64 µg/mL; against C. glabrata it was more than 64 µg/mL; against S. equi* it was more than 64 µg/mL; in test [1], more than 64 µg/mL. For the same sequence, the MIC is 64 µg/mL against S. pyogenes ATCC 19615; more than 64 µg/mL against S. agalactiae; more than 64 µg/mL against C. albicans; 64 µg/mL in the test on S. anginosus; more than 64 µg/mL with S. lutetiensis; more than 64 µg/mL against P. aeruginosa ATCC 27853.

Take “KRMGIFHLFWAGLRKLGNLIKNKIQQGIENFLG [Saha-CATH3]”: the MIC is more than 64 µg/mL in the test with S. aureus ATCC 29213; more than 64 µg/mL against C. gattii; more than 64 µg/mL against E. faecalis ATCC 29212; 16 µg/mL against C. neoformans; more than 64 µg/mL in the test on N. asteroides*; more than 64 µg/mL with S. oralis/mitis group. The MIC (against S. mutans; in the test with S. agalactiae ATCC 12386; in the test with S. salivarius; against C. glabrata; in the test on S. equi*; in test [1]) was more than 64 µg/mL each time. In addition, the MIC against S. pyogenes ATCC 19615, in the test with S. agalactiae, in the test with C. albicans, in the test with S. anginosus, with S. lutetiensis and against P. aeruginosa ATCC 27853 was more than 64 µg/mL in each case.
